Measured values published in PMC12441861, “Next-Generation Lipid Prodrugs Orally Deliver Tenofovir via Enhanced Chylomicron Incorporation” (ACS Pharmacology & Translational Science, 2025).

Experiments:
[1] = tested on: Caco-2 cell-derived CMs; assay type: in vitro ADME, human; settings: for increase in CM concentration compared to TXL / CM concentration relative to ω-unmodified BOG prodrug (21a vs 8a, 21b vs 8b): 20 h
Description: [formula] 1 Chylomicron (CM) Isolation and Drug Quantification Methods ^a a (1) Caco-2 cells were grown to confluence. (2) Lipid mix was added to media (final drug concentration of 10 μM), and cells were incubated for 4 h. (3) Cells were washed 3× with PBS. (4) Cells were incubated in fresh media overnight. (5) CM-containing media was collected. (6) Media was combined with a 1.20 g/mL NaCl solution in an ultracentrifugation tube, 500 μL H2O was carefully layered on top, and the mixture was centrifuged at 10,950 RCF for 3 h. (7) The CM-containing upper layer was carefully isolated with a fine-tip pipette. (8) Test drug was then extracted from the CM layer with 70% ACN and quantified using LC-MS/MS.
With the presence of CMs in isolated Caco-2 cell extracts confirmed and reproducibility validated across replicates and different drugs, we were eager to investigate drug incorporation during CM biogenesis in vitro. Accordingly, we added test compound (Figure ) to differentiated Caco-2 cells along with the lipid mix to a final test drug concentration of 10 μM. While 10 μM was selected as a standard concentration for these studies, higher concentrations could allow detection of other compounds with low CM association in future experiments. In either case, CMs secreted by Caco-2 cells can be isolated postincubation, and drug concentrations within CMs can be assessed using highly sensitive LC-MS/MS methodology. Positive (high c Log D) and negative (low c Log D) control compounds were selected to validate this assay. […] Given these properties, we expected CAB to readily package into CMs in vitro. […]. […] This sets the stage for quantitative comparisons of TXL and its functionalized analogs, which are detailed below.
At 14-days postconfluence, Caco-2 cells were incubated in a lipid mixture to induce secretion of CMs. For the lipid solution, oleic acid (50 mg), lecithin (40 mg), and sodium taurocholate (48 mg) were weighted out into an Eppendorf tube, and the volume was brought up to 900 μL with PBS, followed by vigorous vortexing to ensure sample homogeneity. This 100× lipid mixture was then diluted into growth media to achieve the desired concentrations (2 mM oleic acid, 1.36 mM lecithin, 1 mM sodium taurocholate) by adding 500 μL of the lipid mixture to 49.5 mL of media. The lipid-supplemented media was thoroughly mixed and sterilized by filtration using a 250 mL sterile vacuum filter. For the drug-exposed CM experiments, each test compound was dissolved in 2 mM human serum albumin (HAS, Sigma, essentially fatty acid free) in DPBS, then added to 10 mL aliquots of lipid-containing media to achieve a final concentration of 10 μM. Subsequently, lipid-containing media was added to Caco-2 cells and incubated for 4 h at 37 °C. After incubation, cells were washed twice with PBS then incubated for 4, 8, or 20 h at 37 °C in fresh, colorless growth medium. Media was collected into 15 mL falcon tubes and centrifuged at 2000g to remove cell debris. Postcentrifugation, the supernatant was transferred to 50 mL Nalgene Oak Ridge High-Speed PPCO Centrifuge Tubes. Next, to adjust the density for ultracentrifugation, 1.19 g of NaCl in 2 mL of deionized (DI) H2O were added to reach a final volume of 5 mL, corresponding to a density of 1.20 g/mL. This mixture was dissolved by vortexing and balanced by weight. 500 μL of DI H2O was carefully overlaid onto the mixture. Ultracentrifugation was performed for 2 h and 30 min at 10,920 relative centrifugal force (RCF). Immediately after centrifugation, the top 500 μL layer, containing CMs, was carefully collected using a gel-loading pipet tip.
To an aliquot of CM extract was added an equal volume of ACN into 1.5 mL Eppendorf tubes. Tubes were shaken for 1 h at rt then centrifuged at 15,000 RCF to remove debris. The clear supernatant was transferred to a glass vial and concentrated under reduced pressure to yield a dry solid. Sample was then reconstituted in 70% ACN in H2O, filtered and then analyzed. […]

[2] = Metabolic stability in human liver microsomes; assay type: in vitro ADME; settings: pH 7.4, read-out: Metabolic Stability HLM t1/2
Description: Assays employed human liver microsomes (HLMs, 20 mg/mL) from Xenotech. A 10 mM NADPH stock was prepared in deionized H2O, and test compounds were dissolved in 100% MeOH to a final concentration of 10 mM. The stock solutions were diluted to 500 μM in 100 mM potassium phosphate buffer (pH 7.4), keeping the final MeOH concentration below 0.2%. Reaction mixtures were prepared by combining 928 μL phosphate buffer, 55 μL liver microsomes, and the test compound solution to a final concentration of 3 μM. Verapamil was used as a positive control. The reactions were initiated with the addition of 110 μL of 10 mM NADPH. Aliquots were taken in duplicate at 0, 5, 10, 15, and 30 min, quenched with 100 μL of cold MeOH containing 2 μM internal standard (d 5-7-ethoxy coumarin), and centrifuged at 12,000 RCF for 5 min. The supernatants were then transferred to LC-MS vials for analysis. The average of each duplicate was normalized to the 0 min time point, representing 100% remaining (0% metabolism).

Row | increase in CM concentration compared to TXL ([1]; 10 μM) | half-life at 3 µM [2] | CM concentration relative to ω-unmodified BOG prodrug (21a vs 8a, 21b vs 8b) ([1]; 10 μM) | Compound | detection of compound in CM extract by LC-MS/MS ([1]; 10 μM test drug, Caco-2 cells) | concentration in CMs compared with BOG prodrugs ([1]; 8 h, 10 μM)
1 | 3.3 fold | > 2 h | approximately 1.8 fold | C[C@H](Cn1cnc2c(N)ncnc21)OCP(=O)(O)OC[C@H](COCCCCCCCCCCCCCCCC(F)(F)F)OCc1ccccc1 [21a, Ammonium[(1R)-2-(6-Aminopurin-9-yl)-1-methyl-ethoxy]methyl-[(2S)-2-benzyloxy-3-(16,16,16-trifluorohexadecoxy)propoxy]phosphinate] |  | 
2 | 3.8 fold | > 2 h | ~1.6 fold | C[C@H](Cn1cnc2c(N)ncnc21)OCP(=O)(O)OC[C@H](COCCCCCCCCCCCCCCCCCC(F)(F)F)OCc1ccccc1 [21b, Ammonium[(1R)-2-(6-aminopurin-9-yl)-1-methyl-ethoxy]methyl-[(2S)-2-benzyloxy-3-(18,18,18-trifluorooctadecoxy)propoxy]phosphinate] |  | 
3 |  |  |  | CCCCCCCCCCCCCCCCOCCCOP(=O)(O)CO[C@H](C)Cn1cnc2c(N)ncnc21 [TXL, hexadecyloxypropyl (HDP)-TFV, reference compound] | successfully detected in CM isolates | significantly greater concentrations in CMs than all BOG substituted prodrugs

Row | Compound | increase in CM concentration compared to TXL ([1]; 10 μM) | half-life at 3 µM [2] | CM concentration relative to ω-unmodified BOG prodrug (21a vs 8a, 21b vs 8b) ([1]; 10 μM) | detection of compound in CM extract by LC-MS/MS ([1]; 10 μM test drug, Caco-2 cells) | concentration in CMs compared with BOG prodrugs ([1]; 8 h, 10 μM)
4 | C[C@H](Cn1cnc2c(N)ncnc21)OCP(=O)(O)OCCCOCCCCCCCCCCCCCCCC(F)(F)F [15a, Ammonium[(1R)-2-(6-aminopurin-9-yl)-1-methyl-ethoxy]methyl-[3-(16,16,16-trifluorohexadecoxy)propoxy]phosphinate] | 2.4 fold | > 2 h |  |  | 
